Calls of active or inactive are those of the source.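 The calls were made as follows: active = compounds giving half or more protection of infected cells from virus-caused growth loss, again on retest; inactive = the rest.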 Where a SMILES comes first, the peptide text is derived from it. [ ]: non-standard residue; d: D form. ΔPro = O=C(O)[CH]1C=CCN1
Test system: CEM cells HIV-1 protection, formazan growth assay
Experiment: NCI AIDS Antiviral Assay
Conditions: for IC50: measured here: growth of uninfected CEM cells
Outline: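 Category rules: moderately active means at least 50% protection on retest, and confirmed active means 100% protection reproducibly. The underlying data came from a formazan growth assay in HIV-1-infected CEM cells.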

| SMILES | EC50 [µM] | IC50 [µM] | outcome |
| --- | --- | --- | --- |
| Cc1cc(C)n(C(C)(C(=O)Cc2ccccc2)n2nc(C)cc2C)n1 | > 200 | > 200 |  |
| Cc1nc2ccccc2c(C(=O)NO)[n+]1[O-] | > 200 | > 200 |  |
| CCCNC(C#N)c1ccc(OCCCCCCCCCCOc2ccc(C(C#N)NCCC)cc2)cc1 (stereo not given) | > 200 | 11 |  |
| COc1cc(O)c(/C=N/N=C(\N)NO)c(OC)c1 | > 200 | 44.7 |  |
| COc1ccc(C(=O)Nc2ccc(S(=O)(=O)c3ccc(NC(=O)c4ccccc4SSc4ccccc4C(=O)Nc4ccc(S(=O)(=O)c5ccc(NC(=O)c6ccc(OC)cc6)cc5)cc4)cc3)cc2)cc1 | 16.6 | 151 |  |
| CN1N=CSC12C(=O)N(c1ccccc1)C(=O)N2c1ccccc1 (stereo not given) |  |  | inactive |
| COC1CCC(=O)N1CN(C(C)=O)c1ccc(C)cc1 (stereo not given) |  |  | inactive |
| CC(C)(O)[C@@H]1CC[C@@]2(C)CCC[C@H](O)[C@H]2C1 |  |  | inactive |
| CN1C(=O)c2ccccc2C2(O)c3ccccc3-c3ccccc3C12O (stereo not given) | > 20 | 4.47 |  |
| CCOC(=O)C(CC)c1cc2n(c(=O)c1C#N)CCC21OCCO1 (stereo not given) | > 200 | > 200 |  |
| CC[N+](C)(C)c1ccc(C(=C2C=CC(=[N+](C)C)C=C2)c2ccc(N(C)C)cc2)cc1 |  |  | inactive |
| CC(=O)Nc1ccc(C2[C@H]3C(=O)N(c4ccc(Cc5ccc(N6C(=O)[C@@H]7ON(c8ccccc8)C(c8ccc(NC(C)=O)cc8)[C@@H]7C6=O)cc5)cc4)C(=O)[C@H]3ON2c2ccccc2)cc1 (stereo not given in full) | > 6.03 | > 6.03 |  |
| O=C(O)C1C=CCN1C(=O)C1C=CCN1C(=O)C1C=CCN1 (stereo not given) (H-[ΔPro]-[ΔPro]-[ΔPro]-OH; configuration not given here) | > 200 | 166 |  |
| [Cl][Cu+].[NH-]C(Cc1c[nH]cn1)C(=O)O (stereo not given) | > 46.8 | 26.9 |  |
| Clc1cccc(Cl)c1C1ON=C(c2ccccc2)N1C12CC3CC(CC(C3)C1)C2 (stereo not given) | > 100 | 14.5 |  |
| Cc1nc(N)nc2c1CCC(O)S2 (stereo not given) | > 200 | 1.02 |  |
| CC(=O)Nc1cc2c(cc1[N+](=O)[O-])-c1cc([N+](=O)[O-])c(NC(C)=O)cc1C2=O | > 200 | 25.7 |  |
| COc1ccc(C2=Nc3cc(C)c(C)cc3NC(c3ccccc3)C2)cc1 (stereo not given) | > 200 | 28.8 |  |
| Cc1ccc(Nc2nc(=O)[nH]c(=O)[nH]2)cc1N | > 200 | > 200 |  |
| CC1(C)CC(=O)C2=C(C1)OC1=C(C(=O)CC(C)(C)C1)C2C(O)C(O)C(O)CO (stereo not given) | > 200 | > 200 |  |
| Nc1cc(C(F)(F)F)ccc1S | > 200 | 22.9 |  |
| COc1ccc(-c2cnoc2-c2ccc(OC)c(OC)c2)cc1OC | > 55 | 0.355 |  |

| SMILES | EC50 [µM] | IC50 [µM] | outcome |
| --- | --- | --- | --- |
| CCCCCC/C=C\CCCCCCCCCc1cc(O)cc(OC)c1O | > 13.8 | 5.01 |  |
| CCCCCCCCCCCCCCCCCCOCC(COP(=O)([O-])OCC[N+](C)(C)C)OC (stereo not given) | > 10.2 | 2.45 |  |
| C=C1CC2(CCOc3ccc(Cl)cc32)OC1=O (stereo not given) | > 372 | 0.977 |  |
| CC(=N\N)/C(C)=N/N=C(C)/C(C)=N/N=C(C)/C(C)=N/N | > 200 | 178 |  |
| O=C(O)Cc1ccc(Nc2nc3cc(C(F)(F)F)ccc3nc2C(=O)O)cc1 | > 200 | > 200 |  |
| Cc1ccc(C(=O)c2ccccc2C(=O)O)c(C)c1 | > 200 | > 200 |  |
| CC(C)(C)c1cc(CCC(=O)Nc2ccc(Cl)cc2)[nH]c(=S)n1 | > 513 | > 513 |  |
| CC1=CC(Nc2ccc(S(=O)(=O)c3ccc(NC4=NCCNC(C)=C4)cc3)cc2)=NCCN1 | > 200 | > 200 |  |
| O=C(O)c1ccc(CS(=O)c2ccccc2)c([N+](=O)[O-])c1 (stereo not given) |  |  | inactive |
| O=CN1CCN(C=S)CC1 | > 1580 | > 1580 |  |
| CC(=O)NC1c2ccccc2C(C)(C)C12CCC1(CC2)OCCO1 (stereo not given) | > 200 | > 200 |  |
| C[C@@H](CC(=O)OCc1ccccc1)OC1OC(COC(=O)C(C)(C)C)C(OC(=O)C(C)(C)C)C(OC(=O)C(C)(C)C)C1OC(=O)C(C)(C)C (stereo not given in full) | > 200 | > 200 |  |
| CCC1(c2ccccc2)Oc2ccccc2-n2cccc2C1=O (stereo not given) | 1.78 | 5.01 |  |
| CC(C)[C@@H](C)/C=C/[C@@H](C)C1CC2C3=CC=C4C[C@@H](OC5OCC(O)C6OC(=O)C(=O)OC56)CC[C@]4(C)C3CC[C@]2(C)C1 (stereo not given in full) | > 200 | 11 |  |
| Cc1c([N+](=O)[O-])oc2c1C(=O)NCCC2 | > 437 | 70.8 |  |
| CSCCCNC(=O)[C@H](CSC)NC(=O)c1csc(CCNC(=O)[C@@H](NSc2ccccc2[N+](=O)[O-])C(C)O)n1 (stereo not given in full) | > 57.5 | > 57.5 |  |
| COc1ccc(OC(C(=O)O)C(C)C)c2c1CCCC2=O (stereo not given) |  |  | inactive |
| O=C1c2cccc(O)c2C(=O)c2c(O)cccc21 | > 30.2 | > 30.2 |  |
| O=C(O)COc1cccc2ccccc(=O)c12 | > 200 | > 200 |  |
| CC(=O)CN(Cc1cc(C)c2c(c1)c1ccccc1n2Cc1ccccc1)S(=O)(=O)c1ccc(C)cc1 | > 19.5 | > 19.5 |  |
| CN(C)CCS(=O)(=O)O | > 200 | > 200 |  |
| Cc1cc(N(CCC#N)S(=O)(=O)c2ccccc2)ccc1/C=C1\N=C(c2ccc(Cl)cc2)OC1=O | > 257 | > 257 |  |

| SMILES | EC50 [µM] | IC50 [µM] | outcome |
| --- | --- | --- | --- |
| O=C(/C=C/c1cccs1)c1ccc(Cl)cc1 |  |  | inactive |
| CCC(O)(COC(N)=O)c1ccccc1 (stereo not given) | > 200 | > 200 |  |
| O=C1C(/C=N\C(=S)NCc2ccccc2)=C(O)c2ccccc21 | > 200 | 67.6 |  |
| Cc1ccc([P+](Cc2ccccc2)(c2ccccc2)c2cccc3ccccc23)cc1 (stereo not given) | > 200 | 0.55 |  |
| C=CC(=O)NCCSSCCNC(=O)C=C | > 200 | 115 |  |
| COC[C@@H]1[C@H]2OC(C)(C)O[C@H]2C(=O)N1C(=O)c1ccc(OC)cc1 | > 200 | > 200 |  |
| Cc1ccc(Nc2nc(C)c(C(/C=C/c3ccc(/C=C/C(=N/NC(=O)C[n+]4ccccc4)c4sc(Nc5ccc(C)cc5[N+](=O)[O-])nc4C)cc3)=N\NC(=O)C[n+]3ccccc3)s2)c([N+](=O)[O-])c1 | > 35.5 | > 35.5 |  |
| CC(=O)OC(C(=O)C(O)C(C)C)C(C)C (stereo not given) | > 832 | > 832 |  |
| Cn1c2ccc(Cl)cc2c2ccc3c(c21)C(=O)C=CC3=O | > 100 | 12.9 |  |
| CN1c2c(nc(N)[nH]c2=O)NCC1CCNc1ccc(C(=O)NC(CCC(=O)O)C(=O)O)cc1 (stereo not given) | > 240 | 204 |  |
| Cc1cc(-c2ccc(C(=O)O)[nH]2)on1 | > 200 | 69.2 |  |
| CCCCN=c1ssc(=O)n1CCCC | > 200 | 26.3 |  |
| O=C1N2CCNc3ccccc3C(c3ccccc3)N1CC2 (stereo not given) | > 200 | 18.6 |  |
| CCOC(=O)c1nnsc1N/N=C\c1ccc([N+](=O)[O-])cc1 | > 200 | > 200 |  |
| CN1c2ccccc2C(=O)N2C(=O)CCC21C (stereo not given) | > 200 | > 200 |  |
| CC1=C(C)CS(=O)(=O)N(c2ccccc2)C1 | > 200 | > 200 |  |
| COC(=O)C(Cc1ccccc1)OC(=O)C(N)CC(=O)O (stereo not given) | > 200 | > 200 |  |
| N#CCN1CCCCCC1 | > 200 | > 200 |  |
| CC(NC(=O)C(C)NC(=O)C(N)CCP(C)(=O)O)C(=O)O (stereo not given) |  |  | inactive |
| Cn1cc(NC(=O)c2cc(NC(=O)Nc3cc(C(=O)Nc4cc(C(=O)Nc5ccc6cc(S(=O)(=O)O)cc(S(=O)(=O)O)c6c5)n(C)c4)n(C)n3)nn2C)cc1C(=O)Nc1ccc2cc(S(=O)(=O)O)cc(S(=O)(=O)O)c2c1 | 6.17 | > 100 |  |
| O=C(CC1(O)C(=O)Nc2ccccc21)c1ccc(Cl)c(Cl)c1 (stereo not given) |  |  | inactive |
| Nc1ncnc2c1ncn2C1C=CC(CO)CC1 (stereo not given) | > 200 | > 200 |  |

| SMILES | EC50 [µM] | IC50 [µM] | outcome |
| --- | --- | --- | --- |
| O=C1NC(=O)C(=O)C(c2nc3ccccc3s2)C1=O |  |  | inactive |
| CCc1c(Sc2ccccn2)n(COCc2ccccc2)c(=O)[nH]c1=O | 91.2 | 339 |  |
| ClC1=C(Cc2ccccc2)Cc2ccc3c(c21)CCC3 | > 200 | > 200 |  |
| CCCCCCCCCCCCCC(=O)CC(=O)c1c(O)cccc1O |  |  | inactive |
| O=C1NCC2(CCN(Cc3ccccc3)CC2)N1 | > 200 | > 200 |  |
| CN=C(c1ccc(NC(=O)c2ccc(C(=O)Nc3ccc(C(=NC)N4CCOCC4)cc3)c(Cl)c2)cc1)N1CCOCC1 | > 200 | > 200 |  |
| Cc1ccc(S(=O)(=O)NCCCSCCO)cc1 | > 871 | 5.75 |  |
| Cn1c(=O)oc2cc(C(=S)N3CCCCC3)ccc21 | > 200 | > 200 |  |
| OC1=CN=C(c2ccccc2)Oc2ccccc21 | > 15.8 | > 15.8 |  |
| O=C1NC(=O)/C(=C/c2ccc(S(=O)(=O)N/N=C/c3ccccc3)cc2)N1 | > 200 | > 200 |  |
| CC(=O)Nc1nnc(S(C)(=O)=O)s1 | > 1120 | 851 |  |
| O=C(NC1CCCC1=O)c1ccccc1 (stereo not given) |  |  | inactive |
| CNCC(=O)NC(CO)C(=O)NC1C(C(N)=O)OC(n2ccc(N)nc2=O)C(O)C1O (stereo not given) |  |  | inactive |
| O=S(=O)(O)CCCNC(CO)(CO)CO | > 200 | > 200 |  |
| O=C(/C=C/c1ccccc1)NC1C=Nc2ccccc2NC1=O (stereo not given) | 148 | > 200 |  |
| COc1cc2c(cc1OC)[C@@](C)(C(O)C(O)C(C)(C)O)NCC2 (stereo not given in full) | > 200 | > 200 |  |
| O=C(/C=C/c1ccccc1)NC1C=Nc2ccc([N+](=O)[O-])cc2NC1=O (stereo not given) | > 102 | 93.3 |  |
| CCOC(=O)c1ccc(-n2[nH]nc(C(N)=O)c2=O)cc1 | > 200 | > 200 |  |
| O=C(O)C(C(=O)O)P(=S)(S)c1ccccc1 (stereo not given) | > 4570 | > 4570 |  |
| O=C1C=CC(=O)c2c1c1c(c3c2C2c4ccccc4C3c3ccccc32)C2c3ccccc3C1c1ccccc12 | > 10.2 | > 10.2 |  |
| CCOC(=O)C1C(c2ccccc2)C(C(=O)OCC)C(O)(C(F)(F)F)OC1(O)C(F)(F)F (stereo not given) |  |  | inactive |
